Experimental data taken from the METLIN SMRT retention time set (Domingo-Almenara et al. 2019).

Assay: gradient 5% acetonitrile 3 min, to 50% in 2 min, to 85% in 15 min, held 3 min, 100 µL/min
Conditions: column: Zorbax Extend-C18 2.1 x 50 mm; eluents: water / acetonitrile, 0.1% formic acid
How it was run: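 The system's dead and dwell volumes were 40 μL and 900 μL, with a Zorbax Extend-C18 column (2.1 × 50 mm, 1.8 μm) run at 100 μL/min in water and acetonitrile containing 0.1% formic acid each. Pure standards were analyzed in mixtures of ~100 molecules by HPLC–quadrupole time-of-flight mass spectrometry in positive and negative ionization mode. Retention time was assigned from computationally picked, manually inspected adduct peaks.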

| RP-LC retention time | SMILES |
| --- | --- |
| 628 s | O=C1NC(C(=O)NC2CCCC2)Cn2cccc21 (stereo not drawn) |
| 955 s | Cc1cc(C(=O)N2CCCCC2)c2c(=O)n(Cc3nc(-c4cccs4)oc3C)c(=O)n(C)c2n1 |
| 999 s | CC1CCCN(S(=O)(=O)c2cccc(-c3cn4cc(Cl)ccc4n3)c2)C1 (stereo not drawn) |
| 546 s | Cc1nnc(NC(=O)CN2CCc3nc(NC(=O)c4cnccn4)sc3C2)s1 |
| 762 s | Cc1ccc(NC(=O)N2CCC3(CC2)NC(=O)c2ccccc2O3)cc1 |
| 599 s | O=C(NCC(=O)N1CCc2ccccc21)c1ccc(=O)[nH]c1 |
| 671 s | COc1cccc(CNC(=O)Cn2ncc3c(c2=O)N(C2CC2)C(=O)CS3)c1 |
| 990 s | Cc1ccc(Nc2c(-c3ccc(N(C)C)cc3)nc3cnccn23)c(Br)c1 |
| 920 s | Cc1ccc(NC(=O)Cn2nc(N(C)C)c3ccccc3c2=O)cc1F |
| 640 s | CSc1cccc(NC(=O)C(=O)NCC(c2ccc3c(c2)CCCN3C)N2CCCC2)c1 (stereo not drawn) |
| 619 s | Cc1ccc2c(=O)c3c([nH]c2c1C)CCN(CC(=O)NC1CCCCC1)C3 |
| 777 s | Cc1cccc(N2CCN(c3cc(C(=O)O)c4cc(NC(=O)C5CCC5)ccc4n3)CC2)c1C |
| 609 s | CN(C)CCNCc1ccc(-c2ccc(Cl)cc2Cl)o1 |
| 596 s | COCCNC(=O)N1CC(c2nc(-c3cccnc3)no2)C2(CCOCC2)C1 (stereo not drawn) |
| 796 s | CC(CNC(=O)c1nc(Cn2c(=O)oc3ccc(Cl)cc32)no1)c1ccccc1 (stereo not drawn) |
| 768 s | Cc1noc(C2CN(C(=O)COc3ccc(Cl)cc3)CC23CCOCC3)n1 (stereo not drawn) |
| 788 s | COc1ccc(NC(=O)N(C)CCc2noc(COc3ccccc3)n2)cc1OC |
| 1090 s | O=C(c1ccc2c(c1)OCO2)N1CCc2cc(-c3csc(C4CC4)n3)ccc21 |
| 1080 s | CCCNC(=O)c1cn(CCC)nc1S(=O)(=O)N1CCN(c2ccccc2OCC)CC1 |
| 694 s | CC1(C)CC(=O)c2cn(-c3ccccc3)c(=O)c(C(=O)N3CCOCC3)c2C1 |
| 654 s | CCC(CC)NC(=O)CCC1CCN(c2cc(NC3CC3)ncn2)CC1 |
| 654 s | Cc1nnc(C2CCCN(C(=O)c3cc(-c4ccc5c(c4)OCO5)n[nH]3)C2)s1 (stereo not drawn) |
| 742 s | Cn1nc(CNC(=O)CNC(=O)Cc2ccc(Cl)cc2)c2ccccc21 |

| RP-LC retention time | SMILES |
| --- | --- |
| 939 s | COc1ccc(-c2ncc3c(n2)CCN(C(=O)Nc2ccccc2C(F)(F)F)C3)cc1 |
| 630 s | Cc1ccc(-c2noc(C3CCCCN3)n2)cc1 (stereo not drawn) |
| 920 s | COC(=O)c1ccc(Cl)cc1NC(=O)COc1nc(C)nc2ccccc12 |
| 723 s | CNC(=O)N1CCc2c(c(-c3nc(-c4ccc(F)cc4)no3)nn2C)C1 |
| 872 s | CCOc1ccc(C(C)NC(=O)c2c(C)sc3ccn(CC)c(=O)c23)cc1 (stereo not drawn) |
| 648 s | COc1ccc(NC(=O)CSc2nnc3c4cc(-c5ccc(F)cc5)nn4ccn23)c(OC)c1 |
| 673 s | CC(=O)NCc1nc(-c2ccccc2Cl)no1 |
| 659 s | Cc1cccc2nnc(N3CCCC(C(=O)NCc4cccs4)C3)n12 (stereo not drawn) |
| 972 s | Cc1cccc(OCC(=O)Nc2ccc3c(c2)Sc2ncccc2C(=O)N3C(C)C)c1 |
| 852 s | O=C(c1ccccc1)N1CCN(c2nc(CN3CCOCC3)cs2)CC1 |
| 668 s | Cn1nc(C(=O)N2CCCCC2)c2c1CCN(C(=O)CCC(=O)N1CCCCCC1)C2 |
| 1040 s | CCOC(=O)c1noc2nc(C)nc(N(C)c3cc(C)ccc3OC)c12 |
| 867 s | Cn1ncc(Br)c1C(=O)N1CCCC1c1cccc(F)c1 (stereo not drawn) |
| 889 s | O=C1Nc2ccccc2OC1C(=O)N1CCN(c2ccc(Cl)cc2)CC1 (stereo not drawn) |
| 649 s | O=C(CSc1nc2ncccc2[nH]1)N1CCN(c2ccc(F)cc2)CC1 |
| 580 s | O=C(Cc1cn2cc(F)ccc2n1)Nc1ccccc1 |
| 712 s | Oc1ccc(-c2ccc(F)cc2)cc1CNC1CCCCC1 |
| 827 s | Cc1ccc(S(=O)(=O)N2CCCC(Cn3cnc4cccnc43)C2)cc1C (stereo not drawn) |
| 577 s | O=C(c1cc(C2CC2)[nH]n1)N1CCN(c2ccc(N3CCOCC3)nn2)CC1 |
| 728 s | O=C(Nc1cccc(-c2cn3cccnc3n2)c1)c1cccc(Br)c1 |
| 515 s | CCn1nc(C)c(CCN(C)C(=O)Cn2nc3n(c2=O)CCC(N)CC3)c1C (stereo not drawn) |
| 1290 s | CCC(C)(C)NS(=O)(=O)c1cccc(-c2nc(-c3ccc(C)cc3)no2)c1 |
| 1100 s | Cc1ccc(Nc2c(-c3ccc(Br)cc3)nc3cnccn23)cc1 |

| RP-LC retention time | SMILES |
| --- | --- |
| 823 s | CCOC(=O)C1CCN(c2cc3c(cc2NC(=O)NCCC(C)C)n(C)c(=O)n3C)CC1 |
| 775 s | CNC(=O)N1CCCC(c2cccc(C(=O)NCc3ccc(F)cc3F)c2)C1 (stereo not drawn) |
| 1000 s | CCCCN(C)C(=O)Cn1c(=O)c2cnc(-c3ccccc3)nc2n(C)c1=O |
| 626 s | CCCN1CCN(C(=O)CC(c2cc(OC)c(OC)c(OC)c2)N2Cc3ccccc3C2=O)CC1 (stereo not drawn) |
| 894 s | O=C(Cn1nc(N2CCOCC2)c2ccccc2c1=O)Nc1cccc(C(F)(F)F)c1 |
| 888 s | O=C(NCCCn1cccc1)c1cc(-c2ccccc2)on1 |
| 953 s | COc1ccccc1OCC(=O)NCCc1sc(-c2ccc(Cl)cc2)nc1C |
| 666 s | CCN(C(=O)CN1C(=O)NC2(CCC(C)CC2)C1=O)c1cccc(C)c1 (stereo not drawn) |
| 692 s | O=C(NCCc1nc(-c2ccc3c(c2)OCO3)n[nH]1)c1ccc(F)cc1Cl |
| 755 s | CC(C)c1noc(C2CCCCN2C(=O)c2cnn3cccnc23)n1 (stereo not drawn) |
| 652 s | O=C(Cn1ccc2ccccc21)N1CCN(c2ccc(-c3ccccn3)nn2)CC1 |
| 644 s | CSc1ccc(-c2nc3cnccn3c2Nc2ccc(C)cc2C)cc1 |
| 1110 s | CCn1c(C(=O)Nc2cc(C)cc(C)c2)cc2sc(Cl)cc21 |
| 653 s | O=C(NC1CC1)c1ccc(-n2cccn2)nc1 |
| 729 s | CCN1CCn2cc(S(=O)(=O)Nc3cc(C)cc(C)c3)cc2C1=O |
| 591 s | CNC(=O)c1cc(N2CCCC2)nc2ccc(F)cc12 |
| 733 s | COc1cccc(NS(=O)(=O)c2cc3n(c2)CCN(C(C)C)C3=O)c1 |
| 815 s | Cc1nnc(-c2ccc(S(=O)(=O)N3CCC(C)CC3)o2)o1 |
| 555 s | COc1ccc2c(c1)c(CN1C[C@@H](CO)[C@H](c3nc(C)no3)C1)cn2C |
| 641 s | COC(=O)c1ccc(NC(=O)C2CCCN2S(=O)(=O)c2ccc(F)cc2)cc1 (stereo not drawn) |
| 596 s | Cc1c(NC(=O)C2CCC2)c(=O)n(-c2ccccc2)n1C |
| 1060 s | O=C(Cc1cc(-c2cc3ccccc3o2)on1)NCCC1=CCCCC1 |
